The values that follow come from publication PMC11538350, “Synthetic studies on the tetrasubstituted D-ring of cystobactamids lead to potent terephthalic acid antibiotics” (Communications Chemistry, 2024).

Values after ≈ are worked out from the molar mass of the structure shown.

What all share (assay): MIC assay
In one assay the test system is E. coli LM705. It is filed as cell-based. The following applies: Escherichia coli, LM705, read-out: MIC E. coli LM705. The method, then:
(§1) All cystobactamids were evaluated in MIC-assays on a panel of representative ESKAPE strains with focus on A. baumannii (Tables 1 and 2). Compared to our previous work[10],[17],[18], we specifically included more challenging test strains with known resistances against gyrase inhibitors.
(§2) 2.1 Materials and Methods
(§3) Strains were cultivated according to standard procedures. Bacterial cryo-cultures were
(§4) resuspended into fresh MHBII (cation adjusted) medium. The resuspension
(§5) assay plate (Corning, #3788).
(§6) in parallel as a positive control. […]

The subject of the next assay is A. baum. DSM-30008. It is filed as cell-based. The following applies: Acinetobacter baumannii, DSM30008; reference strain; read-out: MIC A. baum. DSM-30008. Here is the method:
as §1, §2, §3, §4, §5, §6

For the next assay, the system named is A. baum. ATCC BAA-1710. It counts as cell-based. The following applies: Acinetobacter baumannii, ATCCBAA1710; read-out: MIC A. baum. ATCC BAA-1710. Here is the method:
as §1, §2, §3, §4, §5, §6

A further assay has as its system K. pneum. KP10581. It is filed as cell-based. The following applies: Klebsiella pneumoniae; read-out: MIC K. pneum. KP10581. Here is the method:
as §1, §2, §3, §4, §5, §6

Another assay has as its system A. baum. CIP-105742. It is filed as cell-based. The following applies: Acinetobacter baumannii, CIP105742; read-out: MIC A. baum. CIP-105742. Here is the method:
as §1, §2, §3, §4, §5, §6

Another assay has as its system K. pneum. CIP-104298. It is filed as cell-based. The following applies: Klebsiella pneumoniae, CIP104298; reference strain; read-out: MIC K. pneum. CIP-104298. The method, then: as §1, §2, §3, §4, §5, §6
The subject of the next assay is P. ae. PA14. It is filed as cell-based. The following applies: Pseudomonas aeruginosa, PA14; reference strain; read-out: MIC P. ae. PA14. The method, then:
as §1, §2, §3, §4, §5, §6

The subject of a further assay is P. ae. PA14ΔmexAB. It counts as cell-based. The following applies: Pseudomonas aeruginosa, read-out: MIC P. ae. PA14ΔmexAB. The method, then: as §1, §2, §3, §4, §5, §6
A further assay concerns S. aur. ATCC-29213. It counts as cell-based. The following applies: Staphylococcus aureus, ATCC29213; reference strain; read-out: MIC S. aur. ATCC-29213. The method, then:
as §1, §2, §3, §4, §5, §6

In another assay the test system is A. baum. R835. It is filed as cell-based. The following applies: Acinetobacter baumannii; read-out: MIC A. baum. R835. Here is the method:
as §1, §2, §3, §4, §5, §6

Another assay relates to A. baum. CIP-107292. It counts as cell-based. The following applies: Acinetobacter baumannii, CIP107292; read-out: MIC A. baum. CIP-107292. The method, then: as §1, §2, §3, §4, §5, §6
The next assay concerns E. ae. CIP 106754. It counts as cell-based, Enterobacter aerogenes. The following applies: Klebsiella aerogenes, CIP106754, read-out: MIC E. ae. CIP 106754. Here is the method:
as §1, §2, §3, §4, §5, §6

A further assay has as its system E. faec. DSM-17050 (VRE). It is filed as cell-based, Enterococcus faecium. The following applies: Enterococcus; read-out: MIC E. faec. DSM-17050 (VRE). The method, then: as §1, §2, §3, §4, §5, §6
Assay [1] relates to S. pneum. DSM-11865 (PRSP). It counts as cell-based. The following applies: Streptococcus pneumoniae; read-out: MIC S. pneum. DSM-11865 (PRSP). Here is the method: as §1, §2, §3, §4, §5, §6
The next assay relates to K. pneum. R-1525. It is filed as cell-based. The following applies: Klebsiella pneumoniae; read-out: MIC K. pneum. R-1525. Here is the method: as §1, §2, §3, §4, §5, §6
A further assay has as its system E. coli ATCC-25922. It counts as cell-based. The following applies: Escherichia coli, ATCC25922; reference strain; read-out: MIC E. coli ATCC-25922. Here is the method:
as §1, §2, §3, §4, §5, §6

Another assay has as its system E. cloacae ATCC BAA-2468. It is filed as cell-based. The following applies: Enterobacter cloacae, ATCCBAA2468; read-out: MIC E. cloacae ATCC BAA-2468. Here is the method: as §1, §2, §3, §4, §5, §6

In general, MIC refers to the lowest concentration found to suppress growth.

`C#CCC(NC(=O)c1ccc(NC(=O)c2ccc(C#N)cc2)cc1)C(=O)Nc1ccc(C(=O)Nc2ccc(C(=O)Nc3ccc(C(=O)O)cc3)c(O)c2OC(C)C)cc1` (stereo not shown) [CN-CC-861 2, reference compound]: the MIC with E. coli LM705 was 0.03 to 0.2 µg/mL (≈ 0.0378 to 0.252 µM); in the assay with A. baum. DSM-30008, 0.02 to 0.03 µg/mL (≈ 0.0252 to 0.0378 µM); with A. baum. ATCC BAA-1710, 0.06 to 0.25 µg/mL (≈ 0.0757 to 0.315 µM); in the assay with K. pneum. KP10581 it was 0.06 to 0.25 µg/mL (≈ 0.0757 to 0.315 µM); in the assay on A. baum. CIP-105742, 0.02 µg/mL (≈ 0.0252 µM); with K. pneum. CIP-104298, 8 µg/mL (≈ 10.1 µM). For the same compound, the MIC was 0.5 to 16 µg/mL (≈ 0.631 to 20.2 µM) in the assay with P. ae. PA14; 0.03 to 0.5 µg/mL (≈ 0.0378 to 0.631 µM) in the assay on P. ae. PA14ΔmexAB; 0.02 µg/mL (≈ 0.0252 µM) in the assay with S. aur. ATCC-29213; 1 µg/mL (≈ 1.26 µM) with A. baum. R835; 0.5 to 1 µg/mL (≈ 0.631 to 1.26 µM) in the assay on A. baum. CIP-107292; 0.125 to 4 µg/mL (≈ 0.158 to 5.05 µM) in the assay with E. ae. CIP 106754. The MIC with E. faec. DSM-17050 (VRE) was less than 0.03 µg/mL.
In the case of `O=C(O)c1cn(C2CC2)c2cc(N3CCNCC3)c(F)cc2c1=O` [CIP, ciprofloxacin, reference compound], the MIC in [1] is greater than 6.4 µg/mL; in the assay with K. pneum. R-1525 it was greater than 64 µg/mL; with E. coli LM705, greater than 6.4 µg/mL; with A. baum. DSM-30008, 0.05 to 0.25 µg/mL (≈ 0.151 to 0.754 µM); in the assay on E. coli ATCC-25922, 0.01 to 0.03 µg/mL (≈ 0.0302 to 0.0905 µM); in the assay on A. baum. ATCC BAA-1710, 32 µg/mL (≈ 96.6 µM). In addition, the minimum inhibitory concentration (MIC) in the assay with A. baum. CIP-105742 was 0.03 to 0.25 µg/mL (≈ 0.0905 to 0.754 µM); in the assay with K. pneum. CIP-104298, 0.025 to 0.05 µg/mL (≈ 0.0754 to 0.151 µM); in the assay with P. ae. PA14, 0.025 to 0.2 µg/mL (≈ 0.0754 to 0.604 µM); with P. ae. PA14ΔmexAB it was 0.006 to 0.1 µg/mL (≈ 0.0181 to 0.302 µM); with S. aur. ATCC-29213, 0.2 to 1 µg/mL (≈ 0.604 to 3.02 µM); in the assay with A. baum. R835, 32 µg/mL (≈ 96.6 µM). The minimal inhibitory concentration (MIC) is 64 µg/mL (≈ 193 µM) with A. baum. CIP-107292, greater than 6.4 µg/mL with E. ae. CIP 106754 and 0.05 to 4 µg/mL (≈ 0.151 to 12.1 µM) with E. faec. DSM-17050 (VRE).
As to `CO[C@@H](C(N)=O)[C@H](NC(=O)c1ccc(NC(=O)c2ccc(C#N)cc2)cc1)C(=O)Nc1ccc(C(=O)Nc2ccc(C(=O)Nc3ccc(C(=O)O)cc3)c(O)c2OC(C)C)cc1` [CN861 1, reference compound], the minimum inhibitory concentration (MIC) in the assay on E. cloacae ATCC BAA-2468 was 32 µg/mL (≈ 38 µM); with K. pneum. R-1525, 16 µg/mL (≈ 19 µM); in the assay with E. coli LM705, 0.64 µg/mL (≈ 0.76 µM); with A. baum. DSM-30008, 1 µg/mL (≈ 1.19 µM); with E. coli ATCC-25922 it was 0.25 µg/mL (≈ 0.297 µM); with A. baum. ATCC BAA-1710, 8 µg/mL (≈ 9.5 µM). In addition, the minimum inhibitory concentration (MIC) with K. pneum. KP10581 was found to be 2 µg/mL (≈ 2.38 µM); in the assay on A. baum. CIP-105742, 0.25 µg/mL (≈ 0.297 µM); in the assay with K. pneum. CIP-104298, 16 µg/mL (≈ 19 µM); with P. ae. PA14, 16 µg/mL (≈ 19 µM); in the assay with P. ae. PA14ΔmexAB, 1 µg/mL (≈ 1.19 µM); in the assay on S. aur. ATCC-29213, 0.125 µg/mL (≈ 0.148 µM). Besides, the MIC was 64 µg/mL (≈ 76 µM) with A. baum. R835, greater than 64 µg/mL in the assay with A. baum. CIP-107292 and 4 µg/mL (≈ 4.75 µM) with E. ae. CIP 106754.
As to `C#CC[C@H](NC(=O)c1ccc(NC(=O)c2ccc(C#N)cc2)cc1)C(=O)Nc1ccc(C(=O)Nc2ccc(-c3ncc4cc(C(=O)O)ccc4n3)c(O)c2OC(C)C)cc1` [Cmpd. 47], the MIC with E. coli LM705, in the assay on A. baum. DSM-30008, in the assay on K. pneum. KP10581, with A. baum. CIP-105742, with K. pneum. CIP-104298 and in the assay with P. ae. PA14 was greater than 64 µg/mL in each case. The minimum inhibitory concentration (MIC) with P. ae. PA14ΔmexAB, with S. aur. ATCC-29213, in the assay with A. baum. R835 and in the assay with A. baum. CIP-107292 was greater than 64 µg/mL throughout.
On to `C#CC[C@H](NC(=O)c1ccc(NC(=O)c2ccc(C#N)cc2)cc1)C(=O)Nc1ccc(C(=O)Nc2ccc(C(=O)Nc3ccc(C(=O)O)cc3)c(O)c2OC)cc1` [Cmpd. 10], for which the minimal inhibitory concentration (MIC) in assay [1] is less than 0.03 µg/mL; with E. cloacae ATCC BAA-2468, 16 µg/mL (≈ 20.9 µM); with K. pneum. R-1525, 32 µg/mL (≈ 41.8 µM); in the assay with E. coli LM705, less than 0.03 µg/mL; with E. coli ATCC-25922 it was less than 0.03 µg/mL; in the assay on A. baum. ATCC BAA-1710, 0.25 µg/mL (≈ 0.327 µM). Besides, the minimal inhibitory concentration (MIC) with K. pneum. KP10581 came to 1 µg/mL (≈ 1.31 µM); in the assay on S. aur. ATCC-29213, 0.5 µg/mL (≈ 0.654 µM); in the assay on A. baum. R835 it was 4 µg/mL (≈ 5.23 µM); in the assay on A. baum. CIP-107292, 4 µg/mL (≈ 5.23 µM); in the assay with E. ae. CIP 106754, 4 µg/mL (≈ 5.23 µM).
